Measured values from US11930815B1, “3,3′-(piperazine-1,4-diyl)bis(1-(naphthalen-2-yloxy)propan-2-ol) as insecticidal agent” (priority 2023, dated 2024).
Converted amounts (≈) assume the structure as drawn. Where two headings read alike, the source gives them in different places.

How the values were obtained:
[1] = system: 4th instars of larvae of Spodoptera littoralis; test: Insecticidal bioassay screening, castor leaf dip, 4th instar larvae; assay type: in vivo; conditions: for Toxic ratio: 4th larvae, fenoxycarb's LC50/the compound's LC50 × 100
Method: (§1) Five concentrations (200, 100, 50, 25, 12.5 ppm) were designed for this synthetic compound and the reference fenoxycarb compound as the dynamic ingredients based on ppm via diluting the commercial formulation.
(§2) In this experiment, castor leaves are immersed in each of the previously prepared concentrations of the components for 10 seconds and then left to dry for 60 minutes. Larvae of the second and fourth instars of each checked strain are prepared with treated leaves in gauze-covered glass containers for 72 hrs. An untreated control is made in which leaves are dipped in triton x-100 and distilled water only. Then the preserved leaves were removed & fresh, untreated leaves were provided for 72 hours. Three replicates (10 larvae each) were checked for each concentration. Daily inspection was carried out for all treatments and mortality percentages were recorded 3 days (72 hours) after treatment. The average mortality percentage was corrected employing Abbott's formula. The corrected mortality rate for each of the previously synthesized compounds is statistically calculated according to Finney (1970). Through this rate, the corresponding concentration test lines (LDP lines) are assessed. Fifty and ninety percent mortality are determined, and the regression values for the checked products were previously evaluated.

[2] = system: 2nd instars of larvae of Spodoptera littoralis; test: Insecticidal bioassay screening, castor leaf dip, 2nd instar larvae; assay type: in vivo; conditions: for Toxic ratio: 2nd larvae, fenoxycarb's LC50/the compound's LC50 × 100
Method: as §1, §2

[3] = Spodoptera littoralis, foliar, 72 h

Row | Compound | Toxic ratio ([1]; 72 h) | Toxic ratio ([2]; 72 h) | LC50 [2, 3] | LC50 [1, 3] | LC50 ([2]; Spodoptera littoralis, foliar, 2nd larvae of S. littoralis, after 72 h of treatment, treated castor leaves, read-out: LC50) | LC50 ([2]; foliar, against Spodoptera littoralis under laboratory conditions, instar not stated, read-out: LC50) | activity against Spodoptera littoralis ([2]; verbal summary of Table 1, compared with fenoxycarb) | LC50 ([1]; in vivo) | LC50 ([2]; 2nd instars of larvae of Spodoptera littoralis, after 72 hours of treatment)
1 | CCOC(=O)NCCOc1ccc(Oc2ccccc2)cc1 [Fenoxycarb, reference compound] | 100 | 100 | 2.73 µg/mL (≈ 9.06 µM) |  |  |  |  |  | 
2 | OC(COc1ccc2ccccc2c1)CN1CCN(CC(O)COc2ccc3ccccc3c2)CC1 (centres unmarked) [Compound 9, 3,3′-(piperazine-1,4-diyl)bis(1-(naphthalen-2-yloxy)propan-2-ol)] | 49.7 | 6.51 |  | 87 µg/mL (≈ 179 µM) | 42 µg/mL (≈ 86.4 µM) | 42 µg/mL (≈ 86.4 µM) | active |  | 
3 | OC(COc1ccc2ccccc2c1)CN1CCN(CC(O)COc2ccc3ccccc3c2)CC1 (centres unmarked) [3,3′-(piperazine-1,4-diyl)bis(1-(naphthalen-2-yloxy)propan-2-ol)] |  |  |  |  |  |  |  | about 86.98 ppm | about 42.05 ppm
